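Interpolation was linear, between the two tested concentrations surrounding the appropriate level; five concentrations were tested over 48 hours in 96-well plates. GI50: concentration for 50% inhibition of growth.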 The source made the active and inactive calls. Cut-off read from the data, not from the text of the source: active = GI50 up to about 1.1 µM and inactive = higher.
Legend:
Assay in all cases: inhibition of tumour cell growth, NCI panel, 48 h
MDA-MB-231 = system: MDA-MB-231
SF-539 = system: SF-539
OVCAR-8 = system: OVCAR-8
Hs-578T = system: Hs-578T
OVCAR-5 = system: OVCAR-5
NCI-H23 = system: NCI-H23
RXF 393 = system: RXF 393
SW-620 = system: SW-620
ACHN = system: ACHN
IGROV-1 = system: IGROV-1
CAKI-1 = system: CAKI-1
CCRF-CEM = system: CCRF-CEM
SNB-19 = system: SNB-19
NCI-H460 = system: NCI-H460
OVCAR-3 = system: OVCAR-3
COLO 205 = system: COLO 205
OVCAR-4 = system: OVCAR-4
PC-3 = system: PC-3
SK-MEL-28 = system: SK-MEL-28
LOX IMVI = system: LOX IMVI

CC(C)(C)[Si](C)(C)OCC1C=CC(n2cnc3c(N)ncnc32)O1 (stereo not given)
GI50 (MDA-MB-231): 44.2 µM (inactive)
GI50 (SF-539): > 47.4 µM (inactive)
GI50 (OVCAR-8): 42.6 µM (inactive)
GI50 (Hs-578T): 47.2 µM (inactive)
GI50 (OVCAR-5): 72.8 µM (inactive)
GI50 (NCI-H23): 39.1 µM (inactive)
GI50 (RXF 393): 24.1 µM (inactive)
GI50 (SW-620): 21 µM (inactive)
GI50 (ACHN): > 100 µM (inactive)
GI50 (IGROV-1): 46.6 µM (inactive)
GI50 (CAKI-1): > 100 µM (inactive)
GI50 (CCRF-CEM): 8.32 µM (inactive)
GI50 (SNB-19): 94.2 µM (inactive)
GI50 (NCI-H460): > 100 µM (inactive)
GI50 (OVCAR-3): 24.1 µM (inactive)
GI50 (COLO 205): > 73.1 µM (inactive)
GI50 (OVCAR-4): 32.9 µM (inactive)
GI50 (PC-3): 39.8 µM (inactive)
GI50 (SK-MEL-28): > 62.1 µM (inactive)
GI50 (LOX IMVI): 23 µM (inactive)

Clc1nc(NC23CC4CC(CC(C4)C2)C3)nc(NC23CC4CC(CC(C4)C2)C3)n1
GI50 (MDA-MB-231): > 34.3 µM (inactive)
GI50 (SF-539): > 75.9 µM (inactive)
GI50 (OVCAR-8): 70.1 µM (inactive)
GI50 (Hs-578T): 25 µM (inactive)
GI50 (OVCAR-5): > 100 µM (inactive)
GI50 (NCI-H23): 38.5 µM (inactive)
GI50 (RXF 393): 17.9 µM (inactive)
GI50 (SW-620): 62.4 µM (inactive)
GI50 (ACHN): > 34.8 µM (inactive)
GI50 (IGROV-1): > 100 µM (inactive)
GI50 (CAKI-1): > 100 µM (inactive)
GI50 (CCRF-CEM): 17 µM (inactive)
GI50 (SNB-19): > 100 µM (inactive)
GI50 (NCI-H460): 61 µM (inactive)
GI50 (OVCAR-3): 50.8 µM (inactive)
GI50 (COLO 205): > 67.3 µM (inactive)
GI50 (OVCAR-4): 83 µM (inactive)
GI50 (PC-3): 1.41 µM (inactive)
GI50 (SK-MEL-28): > 100 µM (inactive)
GI50 (LOX IMVI): > 100 µM (inactive)

N#Cc1c(-c2nc3ccccc3s2)c(=O)oc2cc(O)ccc12
GI50 (MDA-MB-231): 22.9 µM (inactive)
GI50 (SF-539): > 100 µM (inactive)
GI50 (OVCAR-8): 32.1 µM (inactive)
GI50 (Hs-578T): 20 µM (inactive)
GI50 (OVCAR-5): 52 µM (inactive)
GI50 (NCI-H23): 24.8 µM (inactive)
GI50 (RXF 393): 43.6 µM (inactive)
GI50 (SW-620): 30.8 µM (inactive)
GI50 (ACHN): 25 µM (inactive)
GI50 (IGROV-1): 15.3 µM (inactive)
GI50 (CAKI-1): 17.5 µM (inactive)
GI50 (CCRF-CEM): 25.4 µM (inactive)
GI50 (SNB-19): 46 µM (inactive)
GI50 (NCI-H460): 27.8 µM (inactive)
GI50 (OVCAR-3): 2.25 µM (inactive)
GI50 (COLO 205): 13.3 µM (inactive)
GI50 (OVCAR-4): 23.1 µM (inactive)
GI50 (PC-3): 34.4 µM (inactive)
GI50 (SK-MEL-28): 41.1 µM (inactive)
GI50 (LOX IMVI): 28.6 µM (inactive)

C=C1C[C@@H](O)[C@@H](Br)C(C)(C)[C@]12CCC(C)(Br)C(Cl)C2 (stereo not given in full)
GI50 (MDA-MB-231): > 50 µM (inactive)
GI50 (SF-539): > 50 µM (inactive)
GI50 (OVCAR-8): > 50 µM (inactive)
GI50 (Hs-578T): > 50 µM (inactive)
GI50 (OVCAR-5): 1.7 µM (inactive)
GI50 (NCI-H23): > 50 µM (inactive)
GI50 (RXF 393): > 50 µM (inactive)
GI50 (SW-620): > 50 µM (inactive)
GI50 (ACHN): > 50 µM (inactive)
GI50 (IGROV-1): > 50 µM (inactive)
GI50 (CAKI-1): > 50 µM (inactive)
GI50 (CCRF-CEM): > 50 µM (inactive)
GI50 (SNB-19): > 50 µM (inactive)
GI50 (NCI-H460): > 50 µM (inactive)
GI50 (OVCAR-3): > 50 µM (inactive)
GI50 (COLO 205): 0.791 µM (active)
GI50 (OVCAR-4): > 50 µM (inactive)
GI50 (PC-3): 0.8 µM (active)
GI50 (SK-MEL-28): > 50 µM (inactive)
GI50 (LOX IMVI): > 50 µM (inactive)

— ChEMBL document CHEMBL1201862, “PubChem BioAssay data set” (2004)
